In ChEMBL document CHEMBL1201862, “PubChem BioAssay data set” (2004):
The source made the active and inactive calls.

Tests used:
[1] = biological target: T1, Zinc finger protein mex-5 (Caenorhabditis elegans, UniProt Q9XUB2); assay: MEX-5/TCR-2 RNA interaction inhibitors, dose response, biochemical, C. elegans, fluorescence polarization (AID 1960)
T1 sequence (Q9XUB2 whole entry): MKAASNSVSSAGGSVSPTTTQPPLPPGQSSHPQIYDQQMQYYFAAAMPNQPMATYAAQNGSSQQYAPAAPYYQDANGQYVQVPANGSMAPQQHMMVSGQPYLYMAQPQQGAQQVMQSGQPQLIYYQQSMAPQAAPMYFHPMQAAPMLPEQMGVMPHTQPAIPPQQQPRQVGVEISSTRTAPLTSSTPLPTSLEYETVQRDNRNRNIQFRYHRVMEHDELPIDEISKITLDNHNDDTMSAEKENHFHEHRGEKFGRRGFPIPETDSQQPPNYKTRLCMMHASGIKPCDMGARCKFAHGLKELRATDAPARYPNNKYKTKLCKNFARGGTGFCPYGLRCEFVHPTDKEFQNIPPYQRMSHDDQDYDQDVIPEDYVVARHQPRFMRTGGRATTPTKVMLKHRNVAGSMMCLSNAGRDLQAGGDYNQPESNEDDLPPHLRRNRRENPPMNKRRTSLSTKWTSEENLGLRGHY

[2] = biological target: T2, Endoribonuclease toxin MazF (Escherichia coli K-12, UniProt P0AE70); assay: MazF toxin RNase activators, dose response, biochemical, fluorescence, single-stranded RNA substrate, uHTS hits (AID 588481); format: functional
T2 sequence (P0AE70 whole entry): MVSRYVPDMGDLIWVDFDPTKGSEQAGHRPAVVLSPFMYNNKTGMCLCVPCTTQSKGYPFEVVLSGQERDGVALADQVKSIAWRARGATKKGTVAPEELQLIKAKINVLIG

[3] = biological target: T2, Endoribonuclease toxin MazF; assay: fluorescent RNA oligo signal without MazF, dose response, counter-screen for MazEF activator project, biochemical, fluorescence, single-stranded RNase substrate (AID 588502); format: functional
[4] = biological target: T3, Voltage-gated N-type calcium channel alpha-1B subunit/Amyloid beta A4 precursor protein-binding family A member 1 (Homo sapiens, UniProt Q00975+Q02410); format: protein assay
[5] = biological target: T3, Voltage-gated N-type calcium channel alpha-1B subunit/Amyloid beta A4 precursor protein-binding family A member 1; format: protein assay; remark: listed apart in the source
[6] = biological target: T4, RNA-binding protein pos-1 (Caenorhabditis elegans, UniProt G5EF15); assay: inhibitors of POS-1/mex-3 RNA binding, dose response, biochemical, fluorescence polarization (AID 1964);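 further: purified POS-1 fused to maltose binding protein made in E. coli; potency of compounds blocking POS-1 binding to fluorescent RNA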
T4 sequence (G5EF15 whole entry): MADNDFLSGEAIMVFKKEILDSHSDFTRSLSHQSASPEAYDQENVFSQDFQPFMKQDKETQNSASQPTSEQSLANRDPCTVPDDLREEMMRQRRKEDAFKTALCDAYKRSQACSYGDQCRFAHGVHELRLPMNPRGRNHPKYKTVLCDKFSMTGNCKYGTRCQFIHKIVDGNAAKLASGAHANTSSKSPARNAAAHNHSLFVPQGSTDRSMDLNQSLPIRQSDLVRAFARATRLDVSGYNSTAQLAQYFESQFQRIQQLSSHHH

HEK293 [7] = assay: cells; conditions: Homo sapiens
[8] = CEM21 lymphoblast cell cytotoxicity, dose response, cytotoxicity control for viral fusion inhibitor project, CellTiter-Glo luminescence, cherry-picked (AID 652042); format: functional, cell-based;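 further: potency for signal decrease meaning cytotoxicity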
[9] = inhibitors of HIV Env-driven cell fusion, dose response, cherry-pick (AID 652057); format: functional, cell-based
[10] = ZM109 Env clade C HIV-1 fusion inhibitors, dose response, HeLa effector, CEM target cells, luciferase, cherry-pick (AID 652058); format: functional, cell-based
[11] = inhibitors of clade B AD8 Env fusion, dose response, cell-based, cherry-pick (AID 652062); format: functional;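 further: luciferase signal from cell-cell fusion driven by HIV-1 clade B AD8 Env; potency is for inhibitors of fusion seen as a drop in luminescence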
[12] = HepG2 cell cytotoxicity, dose response, cytotoxicity control for Shn3 inhibitor project, CellTiter-Glo, cherry-picked (AID 624134); format: functional, cell-based
HEK293 [13] = assay: cells; conditions: Homo sapiens; remark: listed apart in the source
[14] = control 3'UTR Renilla luciferase suppression, dose response, counter-screen for Shn3 inhibitor project, cell-based, Clone20-Shn3RL, cherry-picked (AID 624133); format: functional
[15] = off-target signal loss in HeLa-CEM21 co-culture – HeLa F-luc CTL cells, cherry-picked, counter-screen for HIV-1 Env fusion inhibitor project, dose response (AID 652040); format: functional, cell-based;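 further: potency for signal decrease marking cytotoxic or nonspecific inhibition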
[16] = Shn3 3'UTR reporter inhibitors, dose response, cell-based, Clone20 osteoblasts, firefly luciferase, cherry-picked (AID 624132); format: functional;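 further: firefly luciferase luminescence from reporter carrying the Shn3 3'UTR in osteoblasts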
[17] = cytotoxicity toward NIH3T3 fibroblasts, dose response, counter-screen, cell-based, ATP luminescence, mouse fibroblasts (AID 2010); format: functional;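 further: cells exposed to compound for about 90 hours before reading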
[18] = insulin promoter down-regulators in MIN6 cells, imaging, high-content screening, mouse beta cells (AID 1628); format: functional
INS1 = assay: beta cell apoptosis inhibitors, cytokine rescue, dose response, luminescence, retest (AID 449756); format: functional, cell-based; conditions: Rattus norvegicus;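 further: cell death triggered by IL-1 beta plus TNF-alpha plus IFN-gamma mixture; protective hits raise ATP signal compared with cytokine alone wells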
[19] = biological target: DNA dC->dU-editing enzyme APOBEC-3G (Homo sapiens, UniProt Q9HC16); format: functional;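 further: Dose-response counterscreen measuring inhibition of APOBEC3G DNA deaminase activity, run while confirming APOBEC3A inhibitors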
[20] = biological target: DNA dC->dU-editing enzyme APOBEC-3A (Homo sapiens, UniProt P31941); assay: Dose Response confirmation of small molecule APOBEC3A DNA Deaminase Inhibitors via a fluorescence-based single-stranded DNA deaminase assay. [Related pubchem assays (depositor defined):AID493011, AID493024]; format: functional
[21] = inhibitors of intracellular T. cruzi replication, confirmation, NIH3T3 host cells, beta-gal luminescence (AID 2044); format: functional, cell-based;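 further: intracellular parasites grown in NIH/3T3 mouse fibroblasts as host cells; luminescent beta-galactosidase reporter signal from transgenic T. cruzi replicating inside host cells; inhibitors lower the luminescence signal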
[22] = cytotoxicity in MIN6 insulinoma cells, dose response, cytotoxicity control, cell-based, mouse insulinoma (AID 2122); format: functional;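 further: confirmatory high-throughput counterscreen run to flag cytotoxic compounds; mouse MIN-6 beta cells carrying an insulin promoter eGFP reporter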
[23] = biological target: Eukaryotic translation initiation factor 4E (Mus musculus, UniProt P63073); assay: eIF4E–eIF4G protein interaction inhibitors, dose response, biochemical, TR-FRET (AID 855); format: functional;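 further: potency for disrupting eIF4E binding to eIF4GI seen as loss of FRET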
[24] = biological target: Intestinal-type alkaline phosphatase (Mus musculus, UniProt P24822); assay: PubChem AID 488785; format: functional
[25] = biological target: Intestinal-type alkaline phosphatase (Homo sapiens, UniProt P09923); assay: inhibition of human intestinal alkaline phosphatase – biochemical, dose response (AID 488876); format: functional
[26] = biological target: T5, Alkaline phosphatase, tissue-nonspecific isozyme (Homo sapiens, UniProt P05186); assay: TNAP enzyme inhibition by screening hits, dose response, selectivity assay for mouse IAP inhibitor project, biochemical, human TNAP, uHTS hits (AID 488906); format: functional
T5 sequence (P05186 whole entry): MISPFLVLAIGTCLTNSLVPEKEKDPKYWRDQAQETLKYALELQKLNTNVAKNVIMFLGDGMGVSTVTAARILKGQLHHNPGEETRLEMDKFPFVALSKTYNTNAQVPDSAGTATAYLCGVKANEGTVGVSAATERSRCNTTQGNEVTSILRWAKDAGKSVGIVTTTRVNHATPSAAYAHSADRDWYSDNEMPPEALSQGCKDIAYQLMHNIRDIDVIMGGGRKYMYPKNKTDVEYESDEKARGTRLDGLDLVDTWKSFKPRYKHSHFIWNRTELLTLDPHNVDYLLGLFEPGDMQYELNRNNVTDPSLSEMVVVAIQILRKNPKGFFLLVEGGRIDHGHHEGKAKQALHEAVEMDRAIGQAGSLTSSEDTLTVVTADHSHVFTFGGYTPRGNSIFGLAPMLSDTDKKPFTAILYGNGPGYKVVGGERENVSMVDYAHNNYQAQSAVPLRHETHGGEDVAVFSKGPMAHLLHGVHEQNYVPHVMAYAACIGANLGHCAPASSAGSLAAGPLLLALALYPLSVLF

cells = format: functional
[27] = HepG2 cell cytotoxicity, dose response, cytotoxicity control for non-replicating M. tuberculosis project (AID 489018); format: functional; conditions: Mycobacterium tuberculosis
[28] = biological target: T6, Corticotropin-releasing factor receptor 2/Corticotropin-releasing factor-binding protein (Homo sapiens, UniProt P24387+Q13324); assay: activators of CRF receptor 2 with binding protein – uHTS hits, confirmation (AID 602473); format: functional; conditions: read-out: EC50_Mean
T6 sequence (Q13324 whole entry): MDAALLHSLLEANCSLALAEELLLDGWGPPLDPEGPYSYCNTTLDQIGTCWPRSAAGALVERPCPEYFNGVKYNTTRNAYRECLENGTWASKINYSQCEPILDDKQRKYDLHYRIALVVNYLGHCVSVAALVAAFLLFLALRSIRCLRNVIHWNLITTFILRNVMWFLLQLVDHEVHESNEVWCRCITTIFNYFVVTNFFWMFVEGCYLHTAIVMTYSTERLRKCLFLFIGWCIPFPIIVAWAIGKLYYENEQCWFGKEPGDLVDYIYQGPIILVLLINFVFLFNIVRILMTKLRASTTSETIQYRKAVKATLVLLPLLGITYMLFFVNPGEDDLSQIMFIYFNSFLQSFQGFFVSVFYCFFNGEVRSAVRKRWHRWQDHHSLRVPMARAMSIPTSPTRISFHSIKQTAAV
T6 sequence (P24387 whole entry): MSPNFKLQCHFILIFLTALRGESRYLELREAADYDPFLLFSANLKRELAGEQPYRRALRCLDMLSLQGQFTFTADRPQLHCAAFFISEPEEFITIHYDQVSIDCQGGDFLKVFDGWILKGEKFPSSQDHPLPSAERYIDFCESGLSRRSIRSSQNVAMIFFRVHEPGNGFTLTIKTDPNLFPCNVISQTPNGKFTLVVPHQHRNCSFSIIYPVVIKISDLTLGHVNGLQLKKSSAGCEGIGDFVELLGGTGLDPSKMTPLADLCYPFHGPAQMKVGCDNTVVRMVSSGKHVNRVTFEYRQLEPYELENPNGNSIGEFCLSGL

[29] = THP-1 cell cytotoxicity, dose response, cytotoxicity control for non-replicating M. tuberculosis project (AID 489025); format: functional
[30] = Vero E6 cell cytotoxicity, dose response, cytotoxicity control for non-replicating M. tuberculosis project, secondary assay (AID 492998); format: functional, VeroE6; conditions: Vero C1008
[31] = Luminescence Cell-Based Dose Retest to Confirm Inhibitors of Cancer Stem Cells. [Related pubchem assays (depositor defined):AID2717, AID2721]; format: functional; conditions: Homo sapiens
[32] = microbe, parasite or virus in culture; format: functional; conditions: Mycobacterium tuberculosis

T3 sequence (Q00975 whole entry): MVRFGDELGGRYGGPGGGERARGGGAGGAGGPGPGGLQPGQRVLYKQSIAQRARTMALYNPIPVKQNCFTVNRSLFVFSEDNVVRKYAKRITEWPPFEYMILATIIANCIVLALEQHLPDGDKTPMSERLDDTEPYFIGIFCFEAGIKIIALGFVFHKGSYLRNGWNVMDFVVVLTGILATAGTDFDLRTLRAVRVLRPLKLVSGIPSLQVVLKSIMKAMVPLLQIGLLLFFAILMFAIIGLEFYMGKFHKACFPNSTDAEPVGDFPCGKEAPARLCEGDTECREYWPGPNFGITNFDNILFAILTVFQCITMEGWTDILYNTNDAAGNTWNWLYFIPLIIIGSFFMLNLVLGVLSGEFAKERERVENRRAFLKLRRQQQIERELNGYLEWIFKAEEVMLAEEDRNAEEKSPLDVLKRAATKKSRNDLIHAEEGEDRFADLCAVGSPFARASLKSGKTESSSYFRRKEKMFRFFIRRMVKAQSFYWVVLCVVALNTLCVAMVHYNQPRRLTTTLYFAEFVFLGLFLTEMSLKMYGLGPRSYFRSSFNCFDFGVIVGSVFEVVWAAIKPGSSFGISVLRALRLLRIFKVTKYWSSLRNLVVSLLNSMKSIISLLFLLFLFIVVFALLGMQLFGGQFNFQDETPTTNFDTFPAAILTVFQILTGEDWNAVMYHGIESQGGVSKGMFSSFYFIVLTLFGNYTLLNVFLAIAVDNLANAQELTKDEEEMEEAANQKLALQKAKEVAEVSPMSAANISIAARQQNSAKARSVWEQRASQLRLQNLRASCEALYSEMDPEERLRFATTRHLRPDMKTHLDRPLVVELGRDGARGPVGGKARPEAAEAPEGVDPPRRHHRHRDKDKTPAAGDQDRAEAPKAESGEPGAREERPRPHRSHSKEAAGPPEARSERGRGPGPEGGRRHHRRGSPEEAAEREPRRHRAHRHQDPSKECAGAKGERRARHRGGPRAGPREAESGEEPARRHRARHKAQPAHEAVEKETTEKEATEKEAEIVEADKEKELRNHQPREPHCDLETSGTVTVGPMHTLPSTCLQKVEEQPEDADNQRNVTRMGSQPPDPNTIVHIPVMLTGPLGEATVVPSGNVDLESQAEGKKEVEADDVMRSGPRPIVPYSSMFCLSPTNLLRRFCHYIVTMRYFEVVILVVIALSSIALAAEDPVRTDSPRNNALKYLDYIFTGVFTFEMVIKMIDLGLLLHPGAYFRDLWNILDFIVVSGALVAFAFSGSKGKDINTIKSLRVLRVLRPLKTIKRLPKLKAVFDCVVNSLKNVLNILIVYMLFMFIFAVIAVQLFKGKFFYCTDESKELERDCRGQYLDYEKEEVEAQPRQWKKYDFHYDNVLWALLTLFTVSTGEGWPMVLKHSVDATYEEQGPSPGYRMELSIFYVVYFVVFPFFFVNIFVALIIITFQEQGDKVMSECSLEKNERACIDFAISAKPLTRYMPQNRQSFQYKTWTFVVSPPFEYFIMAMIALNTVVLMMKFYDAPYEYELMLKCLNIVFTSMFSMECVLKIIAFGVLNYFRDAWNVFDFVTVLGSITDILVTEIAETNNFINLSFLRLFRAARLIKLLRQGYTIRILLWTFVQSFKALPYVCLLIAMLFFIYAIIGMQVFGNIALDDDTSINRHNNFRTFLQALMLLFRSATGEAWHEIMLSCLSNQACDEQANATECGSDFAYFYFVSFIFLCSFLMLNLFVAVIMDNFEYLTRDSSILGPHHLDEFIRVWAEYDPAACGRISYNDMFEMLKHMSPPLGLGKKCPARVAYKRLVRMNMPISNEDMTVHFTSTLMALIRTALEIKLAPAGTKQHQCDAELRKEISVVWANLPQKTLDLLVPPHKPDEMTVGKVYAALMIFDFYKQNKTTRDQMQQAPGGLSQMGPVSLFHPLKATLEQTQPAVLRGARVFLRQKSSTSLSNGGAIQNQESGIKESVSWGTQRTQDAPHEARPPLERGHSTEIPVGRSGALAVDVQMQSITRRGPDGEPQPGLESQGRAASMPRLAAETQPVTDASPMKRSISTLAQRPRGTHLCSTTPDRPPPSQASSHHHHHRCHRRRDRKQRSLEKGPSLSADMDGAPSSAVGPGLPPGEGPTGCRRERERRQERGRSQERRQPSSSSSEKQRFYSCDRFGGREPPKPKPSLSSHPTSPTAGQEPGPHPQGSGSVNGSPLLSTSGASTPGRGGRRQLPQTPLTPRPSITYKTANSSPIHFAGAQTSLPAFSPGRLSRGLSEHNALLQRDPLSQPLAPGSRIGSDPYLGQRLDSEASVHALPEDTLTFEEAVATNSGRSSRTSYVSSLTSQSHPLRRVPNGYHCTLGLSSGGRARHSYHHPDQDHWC
T3 sequence (Q02410 whole entry): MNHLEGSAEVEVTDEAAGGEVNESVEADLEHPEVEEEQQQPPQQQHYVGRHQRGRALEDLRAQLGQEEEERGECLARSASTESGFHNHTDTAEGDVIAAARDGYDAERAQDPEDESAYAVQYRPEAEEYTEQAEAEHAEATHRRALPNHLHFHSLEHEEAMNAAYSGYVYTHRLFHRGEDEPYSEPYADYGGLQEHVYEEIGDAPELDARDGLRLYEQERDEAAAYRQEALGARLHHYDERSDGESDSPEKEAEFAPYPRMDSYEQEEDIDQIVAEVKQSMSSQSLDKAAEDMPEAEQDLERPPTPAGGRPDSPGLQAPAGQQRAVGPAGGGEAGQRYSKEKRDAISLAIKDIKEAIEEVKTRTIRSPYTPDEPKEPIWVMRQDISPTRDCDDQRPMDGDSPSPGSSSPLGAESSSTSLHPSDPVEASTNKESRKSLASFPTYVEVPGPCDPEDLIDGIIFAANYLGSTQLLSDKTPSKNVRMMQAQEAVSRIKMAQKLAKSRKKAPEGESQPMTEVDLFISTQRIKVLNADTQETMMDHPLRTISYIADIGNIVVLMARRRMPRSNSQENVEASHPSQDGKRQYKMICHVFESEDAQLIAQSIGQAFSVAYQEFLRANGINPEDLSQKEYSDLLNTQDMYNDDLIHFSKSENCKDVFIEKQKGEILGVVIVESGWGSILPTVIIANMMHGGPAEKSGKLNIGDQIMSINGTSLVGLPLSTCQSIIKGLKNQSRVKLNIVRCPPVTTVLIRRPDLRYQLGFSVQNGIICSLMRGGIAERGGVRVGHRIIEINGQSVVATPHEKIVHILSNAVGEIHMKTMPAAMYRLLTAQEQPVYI
Eukaryotic translation initiation factor 4E, sequence (P63073 whole entry): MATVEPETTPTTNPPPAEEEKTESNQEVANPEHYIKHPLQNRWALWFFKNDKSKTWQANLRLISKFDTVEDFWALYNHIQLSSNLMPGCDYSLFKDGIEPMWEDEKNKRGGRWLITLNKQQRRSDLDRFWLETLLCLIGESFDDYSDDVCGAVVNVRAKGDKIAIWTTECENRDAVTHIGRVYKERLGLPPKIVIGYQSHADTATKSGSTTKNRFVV
Intestinal-type alkaline phosphatase (Homo sapiens, UniProt P09923), sequence (P09923 whole entry): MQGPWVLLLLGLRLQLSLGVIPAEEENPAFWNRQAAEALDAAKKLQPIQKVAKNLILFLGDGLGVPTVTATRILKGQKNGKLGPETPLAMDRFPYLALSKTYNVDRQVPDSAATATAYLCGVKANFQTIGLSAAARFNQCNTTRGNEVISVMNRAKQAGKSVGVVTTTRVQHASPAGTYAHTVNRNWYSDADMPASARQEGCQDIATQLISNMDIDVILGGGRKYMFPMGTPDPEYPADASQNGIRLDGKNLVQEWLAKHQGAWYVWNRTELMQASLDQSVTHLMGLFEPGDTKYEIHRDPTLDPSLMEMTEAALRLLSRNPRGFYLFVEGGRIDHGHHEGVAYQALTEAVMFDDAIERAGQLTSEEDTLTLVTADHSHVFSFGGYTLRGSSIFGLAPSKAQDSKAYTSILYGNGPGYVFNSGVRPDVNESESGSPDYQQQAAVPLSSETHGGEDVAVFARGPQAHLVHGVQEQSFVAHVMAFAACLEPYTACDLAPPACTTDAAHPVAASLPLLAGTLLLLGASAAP
Intestinal-type alkaline phosphatase (Mus musculus, UniProt P24822), sequence (P24822 whole entry): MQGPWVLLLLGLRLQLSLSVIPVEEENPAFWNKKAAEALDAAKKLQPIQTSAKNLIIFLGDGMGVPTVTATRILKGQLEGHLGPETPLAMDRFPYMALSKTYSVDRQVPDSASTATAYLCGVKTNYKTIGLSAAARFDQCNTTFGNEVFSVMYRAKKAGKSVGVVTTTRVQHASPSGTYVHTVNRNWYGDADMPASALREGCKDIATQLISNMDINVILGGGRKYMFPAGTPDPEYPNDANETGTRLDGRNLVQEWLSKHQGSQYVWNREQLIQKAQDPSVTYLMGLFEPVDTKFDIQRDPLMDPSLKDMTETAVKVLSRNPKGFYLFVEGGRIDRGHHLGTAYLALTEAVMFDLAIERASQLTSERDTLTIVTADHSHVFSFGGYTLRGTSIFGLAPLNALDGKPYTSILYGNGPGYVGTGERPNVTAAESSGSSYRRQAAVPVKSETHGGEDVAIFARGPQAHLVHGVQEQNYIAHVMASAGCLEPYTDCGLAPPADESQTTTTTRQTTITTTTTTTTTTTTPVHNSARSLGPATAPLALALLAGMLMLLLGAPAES
DNA dC->dU-editing enzyme APOBEC-3G, sequence (Q9HC16 whole entry): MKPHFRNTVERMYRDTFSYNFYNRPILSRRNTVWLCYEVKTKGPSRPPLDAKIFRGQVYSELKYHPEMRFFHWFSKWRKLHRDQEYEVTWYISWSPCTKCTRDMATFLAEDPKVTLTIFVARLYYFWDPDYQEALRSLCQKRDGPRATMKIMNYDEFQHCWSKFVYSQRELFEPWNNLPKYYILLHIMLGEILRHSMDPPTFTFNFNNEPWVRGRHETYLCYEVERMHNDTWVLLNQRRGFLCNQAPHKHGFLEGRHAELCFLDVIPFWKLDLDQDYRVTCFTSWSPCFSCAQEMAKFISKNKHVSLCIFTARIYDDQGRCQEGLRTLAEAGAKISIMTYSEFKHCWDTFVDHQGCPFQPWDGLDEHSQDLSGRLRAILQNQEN
DNA dC->dU-editing enzyme APOBEC-3A, sequence (P31941 whole entry): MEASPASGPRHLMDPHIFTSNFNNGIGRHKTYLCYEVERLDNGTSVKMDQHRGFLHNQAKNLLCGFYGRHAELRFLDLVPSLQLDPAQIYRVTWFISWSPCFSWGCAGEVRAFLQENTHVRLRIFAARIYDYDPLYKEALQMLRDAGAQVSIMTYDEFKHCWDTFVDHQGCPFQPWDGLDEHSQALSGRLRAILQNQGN

SMILES: CCOC(=O)Cn1c2ccc(OC)cc2c2nc3ccccc3nc21
- EC50 [1]: 2.26 µM (active)
- EC50 [2]: > 99 µM (inactive)
- EC50 [3]: 50.7 µM (inactive)
- IC50 [4]: 4.34 µM (active)
- IC50 [5]: > 50 µM (inactive)
- EC50 [6]: 0.862 µM (inconclusive)

SMILES: NC(CCc1ccccc1)c1csc(NC(=O)Nc2ccccc2Oc2ccccc2)n1 (stereo unspecified)
- EC50 (HEK293 [7]): > 59.6 µM (inactive)
- AC50 [8]: 11.4 µM (active)
- AC50 [9]: 0.824 µM (active)
- AC50 [10]: 3.38 µM (active)
- AC50 [11]: 4.98 µM (active)
- AC50 [12]: 13.5 µM (active)
- EC50 (HEK293 [13]): > 59.6 µM (inactive)
- AC50 [14]: 13.6 µM (active)
- AC50 [15]: 1.65 µM (active)
- AC50 [16]: 7.18 µM (active)

SMILES: CCCCCCCC[n+]1c(C)n(-c2ccccc2)c2ccc(NC(C)=O)cc21
- EC50 [17]: > 60 µM (not active)
- IC50 [18]: < 0.25 µM (active)
- AC50 (INS1): 2.41 µM (active)
- IC50 [19]: 2.66 µM (active)
- IC50 [20]: 1.44 µM (active)
- EC50 [21]: 0.768 µM (active)
- IC50 [22]: < 0.25 µM (active)

SMILES: CCNc1ccc(C(=O)OCC(=O)NC(C)c2ccccc2)cc1[N+](=O)[O-] (stereo unspecified)
- IC50 [23]: > 64 µM (inactive)

SMILES: O=C(NC1CCCCCCC1)C1CCN(S(=O)(=O)N2CCCC2)CC1
- IC50 [23]: > 64 µM (inactive)

SMILES: NS(=O)(=O)c1cc(C(=O)N=Nc2c(O)[nH]c3ccccc23)ccc1Cl
- IC50 [24]: 42.4 µM (active)
- IC50 [25]: > 100 µM (inactive)
- IC50 [26]: > 100 µM (inactive)

SMILES: CCCCCOc1ccc(C(=O)CCC(=O)NNC(=O)c2ccncc2)cc1
- IC50 [24]: 14.7 µM (active)
- IC50 [25]: 25.6 µM (active)
- IC50 [26]: > 100 µM (inactive)

SMILES: CCCN(CCC)S(=O)(=O)c1ccc(C(=O)Nc2nnc(-c3cccc(OC)c3)o2)cc1
- IC50 (cells): 15.1 µM (active)
- CC50 [27]: 12.4 µM (active)
- EC50 [28]: 5.45 µM (active)
- CC50 [29]: 1.49 µM (active)
- CC50 [30]: 3.51 µM (active)

SMILES: CCCCC1(CC(=O)OCC)C(=O)N(c2ccccc2)N(c2ccccc2)C1=O
- EC50 (HEK293 [7]): > 59.6 µM (inactive)
- EC50 (HEK293 [13]): > 59.6 µM (inactive)

SMILES: NC(=O)c1ccc2c(O)c(O)c(-c3cc(Cl)c(N)c(Cl)c3)nc2c1
- IC50 [4]: 14.1 µM (active)
- IC50 [5]: 28.9 µM (active)

SMILES: COc1cc(CNCCc2ccccc2)cc(Cl)c1OCc1ccccc1
- IC50 (cells): 13.9 µM (active)
- CC50 [27]: 15.5 µM (active)
- AC50 [31]: 5.32 µM (active)
- CC50 [29]: 13.7 µM (active)
- CC50 [32]: 22.9 µM (active)
- CC50 [30]: 17.4 µM (active)
